Results as given in patent publication US6500849B1, “1-alkyl-, 1-alkenyl-, and 1-alkynylaryl-2-amino 1,3-propanediols and related compounds” (Aventis Pharmaceuticals Inc., priority 1990, dated 2002).
Values after ≈ are worked out from the molar mass of the structure shown.

Legend:
[1] = tested on: female Swiss Webster mice; assay: TPA-induced ear edema assay; format: in vivo; conditions: 10 μg/ear topical, after about 5 hours
Description: In the TPA-induced ear edema assay, TPA (12-O-tetradecanoylphorbol-13-acetate) was dissolved in 30/70 propylene glycol/ethanol and was applied to the right ear of groups of 6 female Swiss Webster mice, which were housed together in a cage under standard conditions for 1 week prior to use with food and water ad lib, at a volume of 20 μl so that a total of 10 μg of TPA is delivered to the inner and outer surfaces of the ear. The test compound was dissolved in the vehicle and was applied to the right ear (the inner and outer surface) at a volume of 20 μl so that a total of 10 μg of the compound was delivered to the ear. After about 5 hours, the animals were sacrificed, a 4 mm diameter plug was taken from each ear and weighed. The difference between the right and left ear plug weights for each animal was determined. The antiinflammatory activity of the test compound is expressed as the mean percent change in the ear plug weight of the treated animals compared to the mean percent change in the plug weight of the control animals.

Protein kinase C = Protein kinase C assay (32P incorporation into Type III histone); format: biochemical, rat; conditions: for IC50: rat brain protein kinase C, phosphatidylserine/diacylglycerol stimulated, read-out: Protein Kinase Inhibitory Activity IC50
Description: (see U. Kikkawa, et al., Biochemical and Biophysical Research Communications, 135, 636 (1986) and R. M. Bell, et al. “Methods in Enzymology, Hormone Action,” Part J, P.M. Conn, Ed., Academic Press, Inc., New York, N.Y. 1986, page 353). Protein kinase C enzyme extract was prepared from the brain of male Wistar rats weighing 180 to 200 g and purified by the method of U. Kikkawa, et al., ibid. 636. The purified extract was stored at −80° C., and aliquots were used in the protein kinase C assay performed by a modification of the method of R. M. Bell, et al., ibid. al 354. To perform the assay, duplicate aliquots of duplicate samples are employed. Basal or unstimulated protein kinase C, phosphatidylserine/diacylglycerol stimulated protein kinase C, and test samples are run in each assay. […] The assay tubes were allowed to warm to 25° C. and an 8 μl mixture of adenosine 5′-triphosphate (100 μM) and ^32P-adenosine triphosphate (1 to 2×10^5 counts per minute) was added to each tube for a final volume of 80 μl per tube. After 2 min, the reaction (the incorporation of phosphorous into Type III histone) was terminated by spotting the assay mixture on phosphocellulose paper. The spots are cut out of the paper and the radioactivity (counts per min) of each spot was determined in a scintillation counter.

male CFW mice = assay: Dark avoidance assay (reversal of scopolamine induced memory deficits); format: in vivo; conditions: sc, scopolamine 3.0 mg/kg sc
Description: In this assay, three groups of 15 male CFW mice were used—a vehicle/vehicle control group, a scopolamine/vehicle group, and a scopolamine/drug group. Thirty minutes prior to training, the vehicle/vehicle control group received normal saline subcutaneously, and the scopolamine/vehicle and scopolamine/drug groups received scopolamine subcutaneously (3.0 mg/kg, administered as scopolamine hydrobromide). Five minutes prior to training, the vehicle/vehicle control and scopolamine/vehicle groups received distilled water and the scopolamine/drug group received the test compound in distilled water.
The training/testing apparatus consisted of a plexiglass box approximately 48 cm long, 30 cm high and tapering from 26 cm wide at the top to 3 cm wide at the bottom. The interior of the box was divided equally by a vertical barrier into a light compartment (illuminated by a 25-watt reflector lamp suspended 30 cm from the floor) and a dark compartment (covered). There was a hole at the bottom of the barrier 2.5 cm wide and 6 cm tall and a trap door which could be dropped to prevent an animal from passing between the two compartments. […]
At the end of the pretreatment interval, an animal was placed in the light chamber directly under the light fixture, facing away from the door to the dark chamber. […] The latency is seconds for each mouse was recorded.
The test day latency in seconds for each animal was recorded and the animals were then discarded.
The high degree of variability (due to season of the year, housing conditions, and handling) found in one trial passive avoidance paradigm is well known. To control for this fact, individual cutoff (CO) values were determined for each test, compensating for interest variability. […]
The results of the dark avoidance test are expressed as the number of animals per group (%) in which this scopolamine induced memory deficit is blocked as measured by an increase in the latency period.

Clost. perfringens = assay: microbe, parasite or virus in culture; format: cell-based; conditions: Clost. perfringens 194; anaerobic; 48 hours at 37° C.
Bact. fragilis = assay: Anerobic antibacterial assay (agar dilution, Wilkins-Chalgren agar); format: cell-based; conditions: anaerobic, 48 hours at 37° C.
Spaeroph. freundii = assay: as above; format: cell-based; conditions: Spaeroph. freundii 1369; anaerobic; 48 hours at 37° C.
Bact. distasonis = assay: as above; format: cell-based; conditions: Bact. distasonis 1366; anaerobic; 48 hours at 37° C.
Peptostr. anaerobius = assay: as above; format: cell-based; conditions: Peptostr. anaerobius 932; anaerobic; 48 hours at 37° C.
Fusobact. varium = assay: as above; format: cell-based; conditions: anaerobic, 48 hours at 37° C.
Aspergillus Niger = assay: Antifungal assay (microtitration technique); format: cell-based; conditions: Aspergillus Niger strain 500/284, 5 days at 30° C.; for MIC: 120 h
Description: (§1) The microtiter plate is prepared as follows: The wells are each filled (2 rows/strain) with 50 μl neopeptone-dextrose broth (12-channel pipette). In addition, one row/strain is coated with 50 μl yeast-nitrogen base/well for yeasts and moulds. […] All wells are then inoculated with 150 μl standardized organism suspension (yeasts: 1×10^3 organisms/ml suspension; cutaneous fungi and moulds: 1.6×10^5 organisms/ml suspension); the total volume is 200 μl per well. There is also a growth control (inoculated, not medicated), a solvent control (inoculated, not medicated, containing solvent as in medicated rows) and a negative control (not inoculated, not medicated). Incubation for 5 days at 30° C. is followed by photometric evaluation. The obtained measurements are checked visually (macroscopically and microscopically) and corrected where necessary. Criteria for Evaluation of the Antimycotic Effect a. Photometric measurements (matrix method) b. Growth, macroscopic evaluation c. Growth, microscopic evaluation (inversion light microscope, magn. 64×).

Trichophyton Rubrum = assay: Antifungal assay (microtitration technique); format: cell-based; conditions: Trichophyton Rubrum strain 101/85, 5 days at 30° C.; for MIC: 120 h
Description: as §1

Microsporum Canis = assay: Antifungal assay (microtitration technique); format: cell-based; conditions: Microsporum Canis strain 150/353, 5 days at 30° C.; for MIC: 120 h
Description: as §1

Candida Albicans = assay: Antifungal assay (microtitration technique); format: cell-based; conditions: Candida Albicans strain 200/175, 5 days at 30° C.; for MIC: 120 h
Description: as §1

Trichophyton Vaginalis = assay: Antifungal assay (microtitration technique); format: cell-based; conditions: Trichophyton Vaginalis strain 111/216, 5 days at 30° C.; for MIC: 120 h
Description: as §1

[2] = tested on: Trichophyton Mentagrophytes; assay: Antifungal assay (microtitration technique); format: cell-based; conditions: Trichophyton Mentagrophytes strain 100/25, 5 days at 30° C.; for MIC: 120 h
Description: as §1

Propionibact. acnes = assay: Anerobic antibacterial assay (agar dilution, Wilkins-Chalgren agar); format: cell-based; conditions: anaerobic, 48 hours at 37° C.
Clost. tetani = assay: as above; format: cell-based; conditions: Clost. tetani 19406; anaerobic; 48 hours at 37° C.
Bact. vulgatus = assay: as above; format: cell-based; conditions: Bact. vulgatus 1446; anaerobic; 48 hours at 37° C.
Bact. ovatus = assay: as above; format: cell-based; conditions: Bact. ovatus 103; anaerobic; 48 hours at 37° C.
Bact. thetaiotaom. = assay: as above; format: cell-based; conditions: anaerobic, 48 hours at 37° C.

CCCCCCCCCCCCc1cccc(C(O)C(N)CO)n1 (stereo not drawn) [erythro-2-Amino-1-(6-Dodecyl-2-pyridinyl)-1,3-propanediol]
Antiinflammatory Activity Percent Decrease in Ear Plug Weight at 10 μg/ear [1]: 24%
IC50 (Protein kinase C): 8.5 µM

CCCCCCCCCCC=Cc1cccc(C(O)C(CO)NC(C)=O)n1 (stereo not drawn) [cis-erythro-N-{1-[6-(1-Dodecenyl)-2-pyridinyl]-1,3-dihydroxy-2-propanyl}acetamide]
Protein Kinase Inhibitory Activity, percent inhibition at a single concentration (Protein kinase C; @ 100 μM): 66% @ 100 μM

CCCCCCCCC#Cc1cccc(C(O)C(CO)NC(C)=O)n1 (stereo not drawn) [erythro-N-{1-[6(1-Decynyl)-2-pyridinyl]-1,3-dihydroxy 2-propanyl}acetamide]
Percent of Animals with Scopolamine Induced Memory Deficit Reversal (male CFW mice; Dose 3.0 mg/kg): 33%

CCCCCCCCCCc1cccc(C(O)C(N)CO)n1 (stereo not drawn) [threo-2-amino-1-(6-decyl)-2-pyridinyl)-1,3-propanediol] [threo-2-Amino-1-(6-Decyl-2-pyridinyl)-1,3-dihydroxypropane]
Antiinflammatory Activity Percent Decrease in Ear Plug Weight at 10 μg/ear [1]: 30%
IC50 (Protein kinase C): 25 µM

CCCCCCCCCCC#Cc1cccc(C(O)C(NC(C)=O)C(=O)OCC)n1 (stereo not drawn) [Ethyl erythro-2-acetamido-3-[6-(1-Dodecynyl)-2-pyridinyl]-3-hydroxypropionate]
Antiinflammatory Activity Percent Decrease in Ear Plug Weight at 10 μg/ear [1]: 50%
IC50 (Protein kinase C): 29 µM

CCCCCCCCCCC#Cc1ccc(C(O)C(N)CO)s1 (stereo not drawn) [erythro-2-Amino-1-[5-(1-Dodecynyl)-2-thienyl]-1,3-propanediol]
Antibacterial activity (MIC, mg/l) (Clost. perfringens): 6.25 mg/L
Antibacterial activity (MIC, mg/l) (Bact. fragilis; Bact. fragilis 312): 6.25 mg/L
Antibacterial activity (MIC, mg/l) (Bact. fragilis; Bact. fragilis 960): 6.25 mg/L
Antibacterial activity (MIC, mg/l) (Bact. fragilis; Bact. fragilis 1313): 6.25 mg/L
Antibacterial activity (MIC, mg/l) (Bact. fragilis; Bact. fragilis 17390): 3.13 mg/L
Antibacterial activity (MIC, mg/l) (Bact. fragilis; Bact. fragilis 18125): 3.13 mg/L
Antibacterial activity (MIC, mg/l) (Bact. fragilis; Bact. fragilis 19016): 6.25 mg/L
Antibacterial activity (MIC, mg/l) (Spaeroph. freundii): 1.56 mg/L
Antibacterial activity (MIC, mg/l) (Bact. distasonis): 3.13 mg/L
Antibacterial activity (MIC, mg/l) (Peptostr. anaerobius): 6.25 mg/L
Antibacterial activity (MIC, mg/l) (Fusobact. varium; Fusobact. varium 3085): 6.25 mg/L
Antibacterial activity (MIC, mg/l) (Fusobact. varium; Fusobact. varium 5262): 3.13 mg/L
Antifungal Activity MIC (Aspergillus Niger): 3.900 µg/mL
Antifungal Activity MIC (Trichophyton Rubrum): 15.625 µg/mL
Antifungal Activity MIC (Microsporum Canis): 3.900 µg/mL
Antifungal Activity MIC (Candida Albicans): 1.950 µg/mL
Antifungal Activity MIC (Trichophyton Vaginalis): 15.625 µg/mL
Antifungal Activity MIC [2]: 3.900 µg/mL
Antibacterial activity (MIC, mg/l) (Propionibact. acnes; Propionibact. acnes 6919): 3.13 mg/L
Antibacterial activity (MIC, mg/l) (Propionibact. acnes; Propionibact. acnes 6922): 1.56 mg/L
Antibacterial activity (MIC, mg/l) (Clost. tetani): 6.25 mg/L
Antibacterial activity (MIC, mg/l) (Bact. vulgatus): 3.13 mg/L
Antibacterial activity (MIC, mg/l) (Bact. ovatus): 3.13 mg/L
Antibacterial activity (MIC, mg/l) (Bact. thetaiotaom.; Bact. thetaiotaom. 123): 3.13 mg/L
Antibacterial activity (MIC, mg/l) (Bact. thetaiotaom.; Bact. thetaiotaom. 1428): 6.25 mg/L
Antibacterial activity (MIC, mg/l) (Bact. thetaiotaom.; Bact. thetaiotaom. 1445): 3.13 mg/L

Cc1cc(C2CCCCC2)n(O)c(=O)c1 [Cyclopirox, reference compound]
MIC (Aspergillus Niger): 0.97 µg/mL (≈ 4.68 µM)
MIC (Trichophyton Rubrum): 1.95 µg/mL (≈ 9.41 µM)
MIC (Microsporum Canis): 1.95 µg/mL (≈ 9.41 µM)
MIC (Candida Albicans): 1.95 µg/mL (≈ 9.41 µM)
MIC (Trichophyton Vaginalis): 15.6 µg/mL (≈ 75.4 µM)
MIC [2]: 1.95 µg/mL (≈ 9.41 µM)

CNC(=O)Oc1ccc2c(c1)[C@]1(C)CCN(C)[C@@H]1N2C [physostigmine, reference compound]
Percent of Animals with Scopolamine Induced Memory Deficit Reversal (male CFW mice; Dose 0.31 mg/kg): 20%

CCCCCCCCC#Cc1cccc(C(O)C(NC(C)=O)C(=O)OCC)n1 (stereo not drawn) [Ethyl erythro-2-acetamido-3-[6-(1-Decynyl)-2-pyridinyl]-3-hydroxypropionate]
Percent of Animals with Scopolamine Induced Memory Deficit Reversal (male CFW mice; Dose 3.0 mg/kg): 27%

Clc1ccccc1C(c1ccccc1)(c1ccccc1)n1ccnc1 [Clotrimazol, reference compound]
MIC (Aspergillus Niger): 1.95 µg/mL (≈ 5.65 µM)
MIC (Trichophyton Rubrum): 0.24 µg/mL (≈ 0.696 µM)
MIC (Microsporum Canis): 0.06 µg/mL (≈ 0.174 µM)
MIC (Candida Albicans): 3.9 µg/mL (≈ 11.3 µM)
MIC (Trichophyton Vaginalis): 62.5 µg/mL (≈ 181 µM)
MIC [2]: 0.97 µg/mL (≈ 2.81 µM)
